Structures are written as SMILES.

One may read the IC50 as the concentration that inhibits the measured activity by half. High values mean lower potency, low ones higher potency.

For assay [1], the system named is oxidatively modified low density lipoprotein (LDL). Description: porcine aortic endothelial cell mediated LDL oxidation assay (TBARS method). Particulars: pocine aortic endothelial cell mediated oxidation of LDL. The class given is cell-based. The source says:
(§1) The antioxidant properties of 17β-dihydroequilenin were established in a standard pharmacological test procedure that measured the its ability to inhibit the formation of oxidatively modified low density lipoprotein (LDL) induced by exposure to either Cu++ ions or cultured endothelial cells (Parthasarathy S, Proc Natl Acad Sci USA 86:1046–1050 (1989)) by the TBARS (thiobarbituric acid reactive substances) method for analysis of free aldehydes (Yagi K., Biochem Med 15:212–216 (1976)).

For assay [2] the test system is unchanged. Description: inhibition of LDL oxidation induced by Cu++ ions or cultured endothelial cells (TBARS method). Particulars: maximal inhibition of the process.
Excerpt: as §1

As to `C[C@]12CCc3c(ccc4cc(O)ccc34)[C@@H]1CC[C@@H]2O` [17β-dihydroequilenin], in assay [1], the midpoint of inhibition, the IC50, lay at 315 nM. The “inhibition of LDL oxidation” value in assay [2] is “up to 100%”. In assay [1], `C[C@]12CC[C@@H]3c4ccc(O)cc4CC[C@H]3[C@@H]1CCC2=O` [estrone, reference compound] displayed a half-inhibitory concentration (IC50) of 560 nM. This counts as sub-micromolar.
